Source: patent publication US20260041694A1, “Udonitrectag For Topical Use In The Treatment Of Dermatological Diseases” (MIMETECH S.R.L., priority 2022, published 2026)

Columns and labels:
[1] = test system: Human Umbilical Vein Endothelial Cells (HUVECs); assay: In vitro AGE-induced endothelial dysfunction, ATP content by CellTiter Glo; assay type: cell-based; conditions: 20 µM MT8; HUVECs on ECM-AGE-coated plates, 4 days
Procedure: BSA-AGE and ECM-AGE were produced by Maillard reaction and Amadori rearrangement and used to evaluate oxidative stress and apoptosis process induced by AGEs in endothelial cell cultures.
To evaluate whether MT8 is able to counteract AGE-induced endothelial cell dysfunction, Human Umbilical Vein Endothelial Cells (HUVECs) were seeded on ECM-AGE-coated plates and incubated with complete growth medium, in the presence or absence of 20 µM MT8, or 2 nM NGF+2 nM BDNF for 4 days. The cells were then lysed with 100 µL of CellTiter Glo, which allows for ATP release from the cells. The ATP content (directly proportional to cell viability) was measured by luciferase assay.

skin lesions / wounds = assay: Topical treatment of skin lesions and wounds in patients (Examples 19-29); assay type: in vivo, human; conditions: topical application
Text: Inoperable antibiotic multi-resistance. […] The jagged edges of the lesion are erythematous and infected. The periwound skin is erythematous and edematous, with erythema extending to the malleolar area. The lesion is lightly exuding, with foul-smelling, serous exudate. Contaminated/infected wound. When changing the dressing, the pain expressed is equal to 8 (VAS pain scale); there is still discomfort and sometimes pain even when the dressing is not changed. Complex wound due to comorbidities. • Treatment with Udonitrectag: Wound cleaning performed with sterile saline solution (0.9% sodium chloride) and Microdacyn, followed by Urgotul and finally 1% Udonitrectag gel-cream, covered with a light dressing; 2 dressing changes per week for a total of 5 dressings with 1% Udonitrectag gel-cream.

[2] = test system: human keratinocytes (HACAT cell line); assay: In vitro wound healing model, scratched keratinocyte monolayer; assay type: cell-based; conditions: 50 μM MT8, compared to control medium
Procedure: To evaluate whether MT8 is able to induce faster healing of injured human keratinocytes (HACAT cell line) monolayers, an in vitro “wound healing” model was used. HACAT cells were seeded in 6-well culture dishes and grown to 90%-95% confluency. A standardized wound was created by scratching the HACAT cell monolayer with a sterile micropipette tip under an inverted microscope. Then, the cells were washed with PBS and treated with 50 μM MT8 or 4 nM NGF, and images of the wound healing process were recorded at different time points.

male C57BL/6 mice = assay: In vivo model of androgenetic alopecia (DHT-injected mice); conditions: Udonitrectag 100 μM in PBS, topical twice a day for 2 weeks; vs vehicle
Procedure: Udonitrectag was studied in an in vivo model of androgenetic alopecia.
For this purpose, male C57BL/6 mice were shaved with an animal clipper at 8 weeks of age, when all follicles are in the telogen phase. After depilation, 4 mg of DHT (dissolved in 100 μL of ethanol) were injected subcutaneously into the back of each animal. The mice were then divided into two groups: vehicle-treated and treated with Udonitrectag 100 μM in PBS. Udonitrectag 100 μM solution, or vehicle (PBS only) were applied topically twice a day for 2 weeks and hair growth was recorded at the beginning and at the end of treatment.

[3] = test system: psoriasis lesions on the calves of both legs; assay: Treatment of psoriasis in a patient; assay type: in vivo, human; conditions: one patient
Text: A patient diagnosed with psoriasis having lesions on the calves of both legs underwent the following treatment:
• FAGRON: galenic preparation (0.05% clobetasol propionate, 10% urea in occluvan q.s. to 100%)

(1S,4R,5R,7S)-3,4-dibenzyl-2-oxo-6,8-dioxa-3-azabicyclo[3.2.1]octane-7-carboxylic acid lysine salt [Udonitrectag]
endothelial cell viability (ATP content) [1]: able to maintain endothelial cell viability | healing of skin lesions incurable with other treatments (FIGS. 6-16) (skin lesions / wounds): healing of severe skin lesions | wound repair process (wound distances as a function of time) [2]: induces a faster repair process | hair regrowth (male C57BL/6 mice): induces hair regrowth much faster and more intensively than vehicle treatment | psoriasis status at skin examination two years after the end of the treatment ([3]; left and right leg, both legs last treated with Udonitrectag 0.5% gel-cream): completely healed | improvement of psoriatic lesions during treatment ([3]; topical, Udonitrectag as 0.5% gel-cream, regimen per leg over days 1-30): produced visible improvements in the lesions
